From US4731473A, “Compounds useful in treating sickle cell anemia” (Merck & Co., Inc., priority 1986, dated 1988)
Structures can show the parent of a compound that is named as a salt.

Columns and labels:
sickle hemoglobin (HbS) = sickle hemoglobin (HbS) (Homo sapiens, UniProt P68871+P69905, E7V); test: solubility or Csat assay: solubility of deoxygenated sickle hemoglobin (Hofrichter et al.); type: biochemical; details: low concentrations (5 mM); versus dichlorobenzyloxyacetic acid and p-bromobenzyloxyacetic acid
From the text: One major assay for evaluating antisickling agents involves measuring their effect on increasing the concentration at which sickle hemoglobin forms a gel. This is called the solubility or Csat assay.
The solubility assay (Csat assay) measures the ability of a compound to increase solubility of sickle hemoglobin (HbS). […] The higher the ratio, the higher the activity of the compound.
In order to confirm the effectiveness of these compounds in reducing the effect of sickle cell anemia, tests were performed. The materials were tested according to the assay (Csat) developed by Hofrichter et al. (J. Hofrichter, P. D. Ross and W. A. Eaton, Proc. Natl. Acad. Sci., U.S.A. 73, 30-35, 1976). This assay involves deoxygenation of concentrated sickle hemoglobin with dithionite in the presence of different concentrations of the drugs being tested. Samples are then sealed in quartz epr tubes under anaerobic conditions and spun at about 150,000 g for about 21/2 hours at about 35° C. in an ultracentrifuge. This procedure pellets the polymerized HbS (sickle hemoglobin) to the bottom of the tubes and the supernatant (soluble HbS) is measured in the laboratory as the cyanmethemoglobulin derivative. […] Activity is reported as a ratio of the HbS solubility with the particular drug to HbS solubility with no drug, i.e. control. The higher the ratio the greater degree of activity of the drug. […]

HbS = test: Chromatographic separation: covalent binding to HbS
erythrocyte membranes = test: Tests of transport across erythrocyte membranes; type: cell-based

## C=C(CC)C(=O)c1ccc(OCCCC(=O)O)c(Cl)c1Cl [sodium salt of 4-[2,3-dichloro-4-(2-methylenebutyryl)phenoxy]butyric acid]
Sickle hemoglobin (HbS)
  solubility ratio compared with other antisickling agents (in words): exhibited a higher solubility ratio than other antisickling agents
HbS
  covalent binding between HbS and the agent (in words): desired tight covalent binding between the HbS and the therapeutic agent had occurred
Erythrocyte membranes
  ability to cross the red blood cell membrane and react with hemoglobin (in words): confirmed the ability of the agent to cross the red blood cell membrane and react with hemoglobin
